Test results reported in patent US20230278972A1, “SUBSTITUTED HALOALKYL SULFONANILIDE HERBICIDES” (FMC Corporation, priority 2020, published 2023).

How the values were obtained:
Format in all cases: in vivo
[1] = system: Oat, Wild (wild oat, Avena fatua); experiment: Test A1 postemergence, Oat, Wild; details: Postemergence
Outline: (§1)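 Test compounds were formulated in a non-phytotoxic solvent mixture containing a surfactant. For preemergence, seeds sown in a loam soil–sand blend received a directed soil spray. For postemergence, potted plants in the same soil, 2 to 10 cm tall at the one- to two-leaf stage, were sprayed.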

[2] = system: Ryegrass, Italian (Italian ryegrass, Lolium multiflorum); experiment: Test A1 postemergence, Ryegrass, Italian; details: Postemergence
Outline: as §1

[3] = system: blackgrass (Alopecurus myosuroides); experiment: Test A1 postemergence, blackgrass; details: Postemergence, 0 to 100 scale (0 no effect, 100 complete control)
Outline: as §1

[4] = system: goosegrass (Eleusine indica); experiment: Test A1 postemergence, goosegrass; details: Postemergence
Outline: as §1

[5] = system: barnyardgrass (Echinochloa crus-galli); experiment: Test B1 flooded paddy test, barnyardgrass; details: 250 g ai/ha, Flood, applied to paddy water, 2-leaf stage, visually evaluated after 10 to 14 days
Source text: A dash (-) response means no test result.

kochia (Bassia scoparia) = experiment: Test A1 postemergence, kochia; details: Postemergence
Outline: as §1

[6] = system: Oat, Wild (wild oat, Avena fatua); experiment: Test A1 preemergence, Oat, Wild
Outline: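 Seeds were first planted into a blend of loam soil and sand and given a preemergence directed soil spray. In parallel, pots of the same soil were sown for postemergence application once plants reached 2 to 10 cm and the one- to two-leaf stage. Both used surfactant-containing non-phytotoxic solvent formulations.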

[7] = system: wheat (Triticum aestivum); experiment: Test A1 postemergence, wheat; details: Postemergence
Outline: as §1

[8] = 31 g ai/ha, 0 to 100 scale (0 no effect, 100 complete control), 10 days
[9] = 31 g ai/ha, 0 to 100 scale (0 no effect, 100 complete control)
[10] = 125 g ai/ha, 0 to 100 scale, 0 no effect, 100 complete control

SMILES	Plant response rating, Oat, Wild ([1]; 125 g ai/ha, 0 to 100 scale)	Plant response rating, Ryegrass, Italian [2, 8]	Plant response rating, Ryegrass, Italian ([2]; 125 g ai/ha, 0 to 100 scale)	Plant response rating, Blackgrass ([3]; 31 g ai/ha, 10 days)	Plant response rating, Blackgrass ([3]; 125 g ai/ha)	Plant response rating, Goosegrass [4, 8]	Plant response rating, Goosegrass ([4]; 125 g ai/ha, 0 to 100 scale)	Plant response rating, Barnyardgrass (0 to 100 scale, 0 is no effect, 100 is complete control) [5]	Plant response rating, Kochia (kochia (Bassia scoparia); [8])	Plant response rating, Kochia (kochia (Bassia scoparia); 125 g ai/ha, 0 to 100 scale)	Plant response rating, Oat, Wild [6, 9]	Plant response rating, Oat, Wild [6, 10]	Plant response rating, Wheat [7, 8]	Plant response rating, Wheat ([7]; 125 g ai/ha, 0 to 100 scale)	Plant response rating, Oat, Wild [1, 8]
Cc1c(NS(=O)(=O)C(F)(F)F)cc(C(=O)N2CCOCC2)c(C)c1C [Compound 289, 1,1,1-Trifluoro-N-[2,3,4-trimethyl-5-(4-morpholinylcarbonyl)phenyl]methanesulfonamide]	20	30	60	0	10	40	70	85	20	60	20	50	20	50	
Cc1cc(C)c(C2=NOC3CCCCCC23)cc1NS(=O)(=O)C(F)(F)F (centres unmarked) [Compound 292]	30	0	30	0	0	0	80	0	30	50	0	50	0	70	10
Cc1cc(C)c(N(C(=O)OC(C)C)S(=O)(=O)C(F)(F)F)cc1C1=NOC2CCCC12 (centres unmarked) [Compound 295]	0	0	30	0	0	20	70	95	0	30	0	0	20	70	0
Cc1cc(C)c(N(S(=O)(=O)C(F)(F)F)S(=O)(=O)C(F)(F)F)cc1C1=NOC2COCC12 (centres unmarked) [Compound 296]	10	0	40	0	0	20	60	30	20	40	0	10	0	30	0
Cc1cc(C)c(C2=NOC3COCC23)cc1NS(=O)(=O)C(F)(F)F (centres unmarked) [Compound 297]	30	0	60	0	0	0	70	0	0	60	0	20	10	80	20
Cc1cc(C)c(N(COC(=O)C(C)(C)C)S(=O)(=O)C(F)(F)F)cc1C1=NOC2COCC12 (centres unmarked) [Compound 301]	10	0	60	0	0	0	60	95	0	30	0	0	0	60	0
Cc1cc(Br)c(C2=NOC3CCCC23)cc1NS(=O)(=O)C(F)(F)F (centres unmarked) [Compound 302]	0	0	0	0	0	0	10	0	10	50	0	20	0	10	0
CCc1cc(C)c(NS(=O)(=O)C(F)(F)F)cc1C1=NOC2CCCC12 (centres unmarked) [Compound 305]	20	0	40	0	0	10	80	90	0	10	20	60	50	60	20
Cc1cc(C(F)(F)F)c(C2=NOC3CCCC23)cc1NS(=O)(=O)C(F)(F)F (centres unmarked) [Compound 306]	20	0	10	0	0	0	80	0	0	20	0	10	0	20	0
